From US8703789B2, “Compositions incorporating sesamin-class compounds and vitamin B1 class compounds” (Suntory Holdings Limited, priority 2007, dated 2014)
Counter-ions that a name gives are not always drawn.

Tested on: Balb/c male mice kept immersed in water (stress from sleep deprivation)
Assay: Water immersion sleep deprivation test, weight-loaded swimming; critical swimming time = time to nose first submerged for at least 10 seconds (Examples 1 and 3)
Details: for anti-fatigue action: fatigue animal models
Excerpt: The anti-fatigue action in the present invention, or its effectiveness as “anti-fatigue agents” can be verified by such a method as measuring the swimming time in a water immersion sleep deprivation test. Mice that have been kept in an environment such as water immersion where they are unable to have a good sleep or take a rest position so they cannot have a physical or mental rest are forced to swim under a weight load and the critical swimming time (e.g., the time it takes for the mouse to have its nose first submerged in the water for a period of ten seconds or longer or the time it takes for the mouse to have its nose finally submerged in the water (and incapable of rising up to its surface again)) is measured to confirm the degree of their fatigue. Since this is an animal model for physical or mental fatigue, an extension of the swimming time as achieved by administering it with the test substance means the verification of resistance to fatigue, as exemplified by prevention or relief of physical and/or mental fatigue or any accompanying muscle or other pains, a sufficient increase in body strength to extend the time to total exhaustion, and maintenance of physical vigor in the tired model.
The anti-fatigue effect was evaluated by the following partial modification of the method of Tanaka et al. (Neuroscience, Let. 352, 159-162, 2003): Balb/c male mice (8-week old) were purchased from Japan SLC, Inc. and conditioned in a test environment for a week, and the animals that had grown normally were subjected to the test. They were divided into five groups, as identified in Table 1, such that each group consisted of 10 animals and had the same average body weight. […] Four of those five groups were water immersion groups under stress from sleep deprivation, which were kept in breeding cages, not on paper chips but in tap water (23° C.) supplied to a depth of 7 mm, thereby depriving the mice of sleep. During a two-day immersion in water to deprive sleep, the mice were administered orally with the associated test samples for two days on a one-dose-a-day basis. Of the two test samples, the sesamin-class compounds were dissolved in olive oil and the thiamin in distilled water. The order of administration was the thiamin followed by the sesamin-class compounds; as controls, distilled water and olive oil were administered orally.
After two days of keeping under immersion in water or normal keeping, each mouse was fitted with a weight at the tail which corresponded to 8% of its body weight, and was allowed to swim in a water tank of 18 cm^φ that was filled with water to a depth of 30 cm; the time it took for each mouse to have its nose first submerged in the water for a period of at least 10 seconds was measured as the critical swimming time. […] The degree by which the administration of the test samples (sesamin-class compounds and/or vitamin B1 class compound) could shorten the critical swimming time was measured to evaluate the anti-fatigue action of the test samples.
The anti-fatigue action from independent administration of vitamin B1 class compound was evaluated as in Example 1, except that the mice were divided into nine groups as identified in Tables 3 and 4.

For `Cc1ncc(C[n+]2csc(CCO)c2C)c(N)n1` [vitamin B1 class compound, thiamine hydrochloride], the critical swimming time (Example 1, FIG. 1, 50 mg/kg vitamin B1 class compound oral, once a day for two days (comparative group 2) vs comparative group 1) was “no recognizable change in critical swimming time”, the critical swimming time (Example 3, FIG. 3, 5 mg/kg vitamin B1 class compound alone (reference group 1) vs comparative group 7) was “comparable” and the critical swimming time (Example 3, FIG. 3, 10 mg/kg vitamin B1 class compound alone (reference group 2) vs comparative group 7) was “comparable”. The critical swimming time (Example 3, FIG. 3, 25 mg/kg vitamin B1 class compound alone (reference group 3) vs comparative group 7) was “comparable”, the critical swimming time (Example 3, FIG. 4, 50 mg/kg vitamin B1 class compound alone (reference group 4) vs comparative group 8) was “comparable” and the critical swimming time (Example 3, FIG. 4, 100 mg/kg vitamin B1 class compound alone (reference group 5) vs comparative group 8) was “longer”. The anti-fatigue action (only vitamin B1 class compound orally, 5 to 10 mg/kg (FIG. 3)) was “no anti-fatigue action was observed”, the anti-fatigue action (vitamin B1 class compound independently, 5 mg/kg (FIGS. 3 and 4)) was “no anti-fatigue action was observed” and the anti-fatigue action (vitamin B1 class compound independently, 10 mg/kg (FIGS. 3 and 4)) was “no anti-fatigue action was observed”. The anti-fatigue action (vitamin B1 class compound independently, 25 mg/kg (FIGS. 3 and 4)) was “no anti-fatigue action was observed”, the anti-fatigue action (vitamin B1 class compound independently, 50 mg/kg (FIGS. 3 and 4)) was “no anti-fatigue action was observed” and the anti-fatigue action (vitamin B1 class compound independently, 100 mg/kg (FIGS. 3 and 4)) was “enhanced”.
